Experimental data: the supplement of paper PMC11061612

Key:
Experiment in all cases: Bliss excess, mean over the matrix (fraction); higher = more synergy
[1] = test system: SUP-HD1 (Hodgkin's Lymphoma)
How it was run: (§1)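 After 24 hours at 37°C and 5% CO2 in 1536-well plates, cells in DMEM/F12 or RPMI plus 10% FBS received two-drug dose matrices for 72 hours. Viability came from CellTiter-Glo 2.0 luminescence and was scaled as inhibition, anchored at 0 by vehicle wells and at 1 by blank wells. Combination Emax is taken as the second-highest inhibition in the matrix, and Bliss excess as the observed combination effect less EA + EB − EA·EB, with EA and EB the single-agent effects.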

[2] = test system: SCC90 (Head and Neck Carcinoma)
How it was run: as §1

GCIY (Gastric Carcinoma) = test system: GCIY (Gastric Carcinoma)
How it was run: as §1

[3] = test system: RPMI-8402 (T-Lymphoblastic Leukemia)
How it was run: as §1

[4] = test system: SBC-5 (Small Cell Lung Carcinoma)
How it was run: as §1

C32 (Melanoma) = test system: C32 (Melanoma)
How it was run: as §1

DK-MG (Glioblastoma) = test system: DK-MG (Glioblastoma)
How it was run: as §1

[5] = test system: SW1463 (Colorectal Carcinoma)
How it was run: as §1

[6] = test system: BC-1 (B-Cell Non-Hodgkin's Lymphoma)
How it was run: as §1

[7] = test system: OVKATE (Ovarian Carcinoma)
How it was run: as §1

[8] = test system: SBC-3 (Small Cell Lung Carcinoma)
How it was run: as §1

SK-N-DZ (Neuroblastoma) = test system: SK-N-DZ (Neuroblastoma)
How it was run: as §1

[9] = test system: COR-L105 (Lung Adenocarcinoma)
How it was run: as §1

[10] = test system: NCI-H2170 (Squamous Cell Lung Carcinoma)
How it was run: as §1

[11] = test system: NCI-H1435 (Non-Small Cell Lung Carcinoma)
How it was run: as §1

[12] = test system: NCI-H1944 (Lung Adenocarcinoma)
How it was run: as §1

[13] = test system: RS4-11 (B-Lymphoblastic Leukemia)
How it was run: as §1

[14] = test system: HT-1197 (Bladder Carcinoma)
How it was run: as §1

[15] = test system: Daudi (Burkitt's Lymphoma)
How it was run: as §1

[16] = test system: SNU-1 (Gastric Carcinoma)
How it was run: as §1

SMILES | Bliss excess [1] | Bliss excess [2] | Bliss excess (GCIY (Gastric Carcinoma)) | Bliss excess [3] | Bliss excess [4] | Bliss excess (C32 (Melanoma)) | Bliss excess (DK-MG (Glioblastoma)) | Bliss excess [5] | Bliss excess [6] | Bliss excess [7] | Bliss excess [8] | Bliss excess (SK-N-DZ (Neuroblastoma)) | Bliss excess [9] | Bliss excess [10] | Bliss excess [11] | Bliss excess [12] | Bliss excess [13] | Bliss excess [14] | Bliss excess [15] | Bliss excess [16]
CC1(C)CCC(CN2CCN(c3ccc(C(=O)NS(=O)(=O)c4ccc(NCC5CCOCC5)c([N+](=O)[O-])c4)c(Oc4cnc5[nH]ccc5c4)c3)CC2)=C(c2ccc(Cl)cc2)C1 [Venetoclax] + CN(C)CCCOc1ccc(-c2ccc3ncc4c(c3c2)n(C2CCOCC2)c(=O)n4C)cn1 [AZD0156] (first compound max 1 µM, 7x7, partner max 1 µM) | -0.0962 | 0.0217 | 0.0131 | 0.0022 | 0.011 | -0.015 | -0.0222 | -0.045 | 0.0066 | -0.0856 | -0.0369 | 0.013 | -0.0408 | 0.024 | -0.0029 | -0.0052 | -0.0088 | -0.0266 | -0.0194 | -0.0069
COc1cccc(OCCCN)c1-c1cc(Nc2cnc(C#N)cn2)n[nH]1 [Prexasertib] + C[C@@H]1COCCN1C2=NC(=NC(=C2)C3(CC3)[S@](=N)(=O)C)C4=C5C=CNC5=NC=C4 [AZD6738] (first compound max 1 µM, 7x7, partner max 10 µM) | -0.0809 | -0.0457 | 0.0063 | 0.001 | -0.0272 | -0.0529 | 0.0073 | 0.0004 | -0.0022 | -0.0378 | -0.0201 | 0.008 | -0.0425 | -0.0461 | 0.0676 | 0.0168 | -0.0225 | 0.0065 | -0.0295 | -0.0712
CC1(C)CCC(CN2CCN(c3ccc(C(=O)NS(=O)(=O)c4ccc(NCC5CCOCC5)c([N+](=O)[O-])c4)c(Oc4cnc5[nH]ccc5c4)c3)CC2)=C(c2ccc(Cl)cc2)C1 [Venetoclax] + COc1cc(Nc2ncc3c(n2)-c2ccc(Cl)cc2C(c2c(F)cccc2OC)=NC3)ccc1C(=O)O [Alisertib] (first compound max 1 µM, 7x7, partner max 10 µM) | 0.0776 | 0.135 | 0.0271 | -0.0525 | 0.024 | 0.0269 | -0.0012 | 0.017 | -0.0492 | -0.0154 | 0.0101 | 0.077 | -0.0741 | -0.0702 | -0.0522 | -0.0192 | 0.0168 | -0.0358 | -0.0718 | -0.0103
CC(=O)Nc1cccc(-n2c(=O)n(C3CC3)c(=O)c3c(Nc4ccc(I)cc4F)n(C)c(=O)c(C)c32)c1 [Trametinib] + Cc1nc(-c2cn3c(n2)-c2ccc(-c4cnn(C(C)(C)C(N)=O)c4)cc2OCC3)n(C(C)C)n1 [Taselisib] (first compound max 1 µM, 7x7, partner max 10 µM) | 0.0392 | 0.0348 | 0.0252 | 0.0185 | 0.192 | 0.0958 | 0.102 | 0.04 | 0.149 | 0.113 | 0.0858 | 0.0954 | 0.0409 | 0.029 | 0.107 | 0.175 | 0.0927 | 0.105 | 0.0217 | 0.202
NC1(C(=O)N[C@@H](CCO)c2ccc(Cl)cc2)CCN(c2ncnc3[nH]ccc23)CC1 [Capivasertib] + CC(=O)c1c(C)c2cnc(Nc3ccc(N4CCNCC4)cn3)nc2n(C2CCCC2)c1=O [Palbociclib] (first compound max 10 µM, 7x7, partner max 10 µM) | -0.0643 | -0.0256 | -0.0402 | -0.0296 | 0.0352 | 0.0018 | -0.0228 | -0.0837 | 0.0026 | -0.018 | 0.0265 | 0.0628 | 0.0532 | 0.0137 | -0.0245 | 0.02 | -0.0425 | 0.0024 | 0.0065 | 0.0634
COc1cccc(OCCCN)c1-c1cc(Nc2cnc(C#N)cn2)n[nH]1 [Prexasertib] + C=CCn1c(=O)c2cnc(Nc3ccc(N4CCN(C)CC4)cc3)nc2n1-c1cccc(C(C)(C)O)n1 [AZD1775] (first compound max 1 µM, partner max 1 µM) | 0.0009 | 0.0902 | 0.0355 | 0.0389 | 0.0356 | -0.0206 | -0.0125 | 0.0656 | 0.0168 | -0.0665 | 0.146 | 0.0202 | 0.0157 | 0.101 | 0.0718 | 0.077 | 0.0466 | -0.0589 | 0.0677 | 0.084
CN(C)CCCOc1ccc(-c2ccc3ncc4c(c3c2)n(C2CCOCC2)c(=O)n4C)cn1 [AZD0156] + C[C@@H]1COCCN1C2=NC(=NC(=C2)C3(CC3)[S@](=N)(=O)C)C4=C5C=CNC5=NC=C4 [AZD6738] (first compound max 1 µM, 7x7, partner max 10 µM) | -0.0232 | 0.0037 | 0.0607 | 0.0028 | 0.0116 | -0.0323 | 0.0346 | -0.0057 | -0.0305 | -0.0189 | 0.0039 | 0.031 | -0.0779 | 0.0947 | -0.0134 | 0.0062 | -0.0192 | -0.0362 | -0.0031 | 0.0461
NC1(C(=O)N[C@@H](CCO)c2ccc(Cl)cc2)CCN(c2ncnc3[nH]ccc23)CC1 [Capivasertib] + C[C@@H]1COCCN1C2=NC(=NC(=C2)C3(CC3)[S@](=N)(=O)C)C4=C5C=CNC5=NC=C4 [AZD6738] (first compound max 10 µM, 7x7, partner max 10 µM) | -0.0508 | -0.0541 | -0.128 | -0.0768 | -0.0169 | -0.0288 | -0.0405 | -0.101 | 0.0034 | -0.0516 | -0.0479 | 0.0045 | -0.034 | -0.0011 | 0.0077 | -0.0268 | -0.0276 | -0.0491 | 0.0167 | 0.0135
COc1nnc2ccc(N3CCC(c4ccc(OCCN5CCN(C)C(=O)[C@H]5C)cc4)CC3)nn12 [AZD5153] + C[C@@H]1COCCN1C2=NC(=NC(=C2)C3(CC3)[S@](=N)(=O)C)C4=C5C=CNC5=NC=C4 [AZD6738] (first compound max 1 µM, 7x7, partner max 10 µM) | -0.0281 | 0.0164 | 0.0327 | -0.0209 | -0.0151 | 0.0069 | -0.0073 | -0.074 | -0.0709 | -0.0027 | -0.032 | 0.0472 | -0.0092 | 0.0964 | 0.0222 | 0.0234 | 0.0145 | -0.0082 | 0.0365 | 0.0228
Cc1c2c(nn1C)CSCc1cc(n(C)n1)CSc1cc(c3ccccc3c1)OCCCc1c(C(=O)O)n(C)c3c-2c(Cl)ccc13 [AZD5991] + C1CN(CCC1(C(=O)N[C@@H](CCO)C2=CC=C(C=C2)Cl)N)C3=NC=NC4=C3C=CN4 [Capivasertib] (first compound max 1 µM, 7x7, partner max 3 µM) | -0.0833 | -0.0533 | 0.0118 | 0.0508 | -0.0069 | 0.0009 | 0.047 | -0.0085 | 0.0256 | -0.0461 | -0.0316 | -0.001 | -0.0019 | -0.0324 | 0.0331 | 0.0254 | -0.0148 | -0.0002 | 0.0353 | -0.0176
CN(CCO)CC[C@H](CSc1ccccc1)Nc1ccc(S(=O)(=O)NC(=O)c2ccc(N3CCC([C@@H](O)c4ccccc4-c4ccc(Cl)cc4)CC3)cc2)cc1S(=O)(=O)C(F)(F)F [AZD4320] + C=CCn1c(=O)c2cnc(Nc3ccc(N4CCN(C)CC4)cc3)nc2n1-c1cccc(C(C)(C)O)n1 [AZD1775] (first compound max 1 µM, partner max 1 µM) | -0.0383 | 0.0385 | 0.0735 | 0.0269 | 0.0264 | 0.108 | -0.0789 | -0.044 | 0.0386 | 0.0271 | -0.0172 | 0.0351 | 0.0129 | 0.0131 | 0.0482 | 0.0312 | 0.0285 | 0.0626 | -0.0249 | 0.127
CN(CCO)CC[C@H](CSc1ccccc1)Nc1ccc(S(=O)(=O)NC(=O)c2ccc(N3CCC([C@@H](O)c4ccccc4-c4ccc(Cl)cc4)CC3)cc2)cc1S(=O)(=O)C(F)(F)F [AZD4320] + Cn1cnc2c(F)c(Nc3ccc(Br)cc3Cl)c(C(=O)NOCCO)cc21 [Selumetinib] (first compound max 1 µM, 7x7, partner max 3 µM) | 0.0036 | 0.144 | 0.0199 | -0.0351 | 0.0547 | 0.0196 | 0.0286 | 0.0106 | 0.0573 | -0.0247 | -0.0148 | -0.0273 | 0.0181 | -0.0497 | 0.0507 | 0.0427 | -0.0125 | 0.0079 | 0.0037 | 0.0212
CC1(C)CCC(CN2CCN(c3ccc(C(=O)NS(=O)(=O)c4ccc(NCC5CCOCC5)c([N+](=O)[O-])c4)c(Oc4cnc5[nH]ccc5c4)c3)CC2)=C(c2ccc(Cl)cc2)C1 [Venetoclax] + C1CN(CCC1(C(=O)N[C@@H](CCO)C2=CC=C(C=C2)Cl)N)C3=NC=NC4=C3C=CN4 [Capivasertib] (first compound max 1 µM, 7x7, partner max 3 µM) | -0.0636 | 0.0282 | -0.0778 | -0.0544 | -0.041 | -0.0483 | -0.0193 | -0.0424 | -0.011 | -0.0458 | -0.0457 | -0.0211 | -0.0664 | -0.0434 | 0.0014 | -0.0343 | -0.003 | -0.0444 | -0.0103 | -0.0535
Cc1c2c(nn1C)CSCc1cc(n(C)n1)CSc1cc(c3ccccc3c1)OCCCc1c(C(=O)O)n(C)c3c-2c(Cl)ccc13 [AZD5991] + C[C@@H](Nc1cc(F)cc(F)c1)c1cc(C(=O)N(C)C)cc2c(=O)cc(N3CCOCC3)oc12 [AZD8186] (first compound max 1 µM, 7x7, partner max 3 µM) | -0.0414 | 0.0186 | -0.0611 | 0.0272 | 0.0033 | 0.0051 | 0.0095 | -0.0398 | -0.0042 | -0.0298 | -0.0341 | -0.0328 | -0.0864 | 0.0095 | 0.0131 | -0.0141 | -0.0092 | -0.0055 | 0.0234 | 0.002
